# Measurements reported in PubChem BioAssay AID1963841 (Molecular Pharmacology Branch, DTP, NCI, 2024).
# Tested on: 439559-082-T-J2-PDC spheroid viability
# Experiment: Anticancer human tumor 439559-082-T-J2-PDC patient-derived colon adenocarcinoma cell line growth inhibition [POLQ]
# Settings: spheroids with HUVEC and MSC; for IC50: curve of first compound; for viability, T/C: stronger effect = lower value
# Summary of the method: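 Patient-derived tumour cells were co-cultured with HUVEC and mesenchymal stem cells as multicellular spheroids at 37 °C. They were treated with POLQ inhibitors (novobiocin, ART-558, RP6685) alone or combined with other agents. Top concentrations were at or near clinical Cmax (otherwise 10 microM; SN-38 at 1 microM), decreasing in half-log steps.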
# [1] = second compound 0.0316 µM, first compound 0.0316 µM
# [2] = second compound 0.0316 µM, first compound 0.1 µM
# [3] = second compound 0.0316 µM, first compound 0.316 µM
# [4] = second compound 0.0316 µM, first compound 1 µM
# [5] = second compound 0.0316 µM, first compound 3.16 µM
# [6] = second compound 0.0316 µM, first compound 10 µM
# [7] = second compound 0.1 µM, first compound 0.0316 µM
# [8] = second compound 0.1 µM, first compound 0.1 µM
# [9] = second compound 0.1 µM, first compound 0.316 µM
# [10] = second compound 0.1 µM, first compound 1 µM
# [11] = second compound 0.1 µM, first compound 3.16 µM
# [12] = second compound 0.1 µM, first compound 10 µM
# [13] = second compound 0.316 µM, first compound 0.0316 µM
# [14] = second compound 0.316 µM, first compound 0.1 µM
# [15] = second compound 0.316 µM, first compound 0.316 µM
# [16] = second compound 0.316 µM, first compound 1 µM
# [17] = second compound 0.316 µM, first compound 3.16 µM
# [18] = second compound 0.316 µM, first compound 10 µM
# [19] = second compound 1 µM, first compound 0.0316 µM
# [20] = second compound 1 µM, first compound 0.1 µM
# [21] = second compound 1 µM, first compound 0.316 µM
# [22] = second compound 1 µM, first compound 1 µM
# [23] = second compound 1 µM, first compound 3.16 µM
# [24] = second compound 1 µM, first compound 10 µM
# [25] = second compound 3.16 µM, first compound 0.0316 µM
# [26] = second compound 3.16 µM, first compound 0.1 µM
# [27] = second compound 3.16 µM, first compound 0.316 µM
# [28] = second compound 3.16 µM, first compound 1 µM
# [29] = second compound 3.16 µM, first compound 3.16 µM
# [30] = second compound 3.16 µM, first compound 10 µM
# [31] = second compound 10 µM, first compound 0.0316 µM
# [32] = second compound 10 µM, first compound 0.1 µM
# [33] = second compound 10 µM, first compound 0.316 µM
# [34] = second compound 10 µM, first compound 1 µM
# [35] = second compound 10 µM, first compound 3.16 µM
# [36] = second compound 10 µM, first compound 10 µM
# 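Note: spheroids exposed to compounds for seven days before readout.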
# 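Throughout, for viability, T/C: 100% = DMSO vehicle control viability.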
structure (smiles),measurement,setting,value
O=c1[nH]cc(F)c(=O)[nH]1 + COC1C(OC(N)=O)C(O)C(Oc2ccc3c(O)c(NC(=O)c4ccc(O)c(CC=C(C)C)c4)c(=O)oc3c2C)OC1(C)C,IC50,second compound 0.0316 µM,> 10 µM
same,IC50,second compound 0.1 µM,> 10 µM
same,IC50,second compound 0.316 µM,> 10 µM
same,IC50,second compound 1 µM,> 10 µM
same,IC50,second compound 3.16 µM,> 10 µM
same,IC50,second compound 10 µM,> 10 µM
same,"viability, T/C",[1],92.1%
same,"viability, T/C",[2],94.8%
same,"viability, T/C",[3],80.5%
same,"viability, T/C",[4],74.8%
same,"viability, T/C",[5],72.9%
same,"viability, T/C",[6],70.1%
same,"viability, T/C",[7],103%
same,"viability, T/C",[8],99.7%
same,"viability, T/C",[9],85.9%
same,"viability, T/C",[10],72.3%
same,"viability, T/C",[11],69.8%
same,"viability, T/C",[12],70.1%
same,"viability, T/C",[13],108%
same,"viability, T/C",[14],97.5%
same,"viability, T/C",[15],83.4%
same,"viability, T/C",[16],74.1%
same,"viability, T/C",[17],72.8%
same,"viability, T/C",[18],66.8%
same,"viability, T/C",[19],103%
same,"viability, T/C",[20],96.7%
same,"viability, T/C",[21],79.9%
same,"viability, T/C",[22],75.5%
same,"viability, T/C",[23],68.2%
same,"viability, T/C",[24],66.9%
same,"viability, T/C",[25],97.8%
same,"viability, T/C",[26],98.3%
same,"viability, T/C",[27],83.9%
same,"viability, T/C",[28],73.2%
same,"viability, T/C",[29],69.1%
same,"viability, T/C",[30],61.6%
same,"viability, T/C",[31],104%
same,"viability, T/C",[32],88.9%
same,"viability, T/C",[33],80.9%
same,"viability, T/C",[34],69.7%
same,"viability, T/C",[35],70.1%
same,"viability, T/C",[36],64.3%
CCCS(=O)(=O)Nc1ccc(F)c(C(=O)c2c[nH]c3ncc(-c4ccc(Cl)cc4)cc23)c1F + Nc1ccc(C#CCN(C(=O)Cc2ncc(C(F)(F)F)cc2C(F)(F)F)c2ccc(F)cc2)nn1,IC50,second compound 0.0316 µM,7.87 µM
same,IC50,second compound 0.1 µM,7.94 µM
same,IC50,second compound 0.316 µM,8.88 µM
same,IC50,second compound 1 µM,8.43 µM
same,IC50,second compound 3.16 µM,8.5 µM
same,IC50,second compound 10 µM,8.29 µM
same,"viability, T/C",[1],66%
same,"viability, T/C",[2],72.5%
same,"viability, T/C",[3],94.9%
same,"viability, T/C",[4],90.5%
same,"viability, T/C",[5],78.2%
same,"viability, T/C",[6],42.5%
same,"viability, T/C",[7],79.8%
same,"viability, T/C",[8],64.4%
same,"viability, T/C",[9],92.4%
same,"viability, T/C",[10],98.2%
same,"viability, T/C",[11],82%
same,"viability, T/C",[12],41.9%
same,"viability, T/C",[13],65.4%
same,"viability, T/C",[14],77%
same,"viability, T/C",[15],93.4%
same,"viability, T/C",[16],103%
same,"viability, T/C",[17],88.7%
same,"viability, T/C",[18],45.9%
same,"viability, T/C",[19],52.6%
same,"viability, T/C",[20],68.7%
same,"viability, T/C",[21],95.9%
same,"viability, T/C",[22],107%
same,"viability, T/C",[23],81%
same,"viability, T/C",[24],44.6%
same,"viability, T/C",[25],61.6%
same,"viability, T/C",[26],66.6%
same,"viability, T/C",[27],103%
same,"viability, T/C",[28],99.6%
same,"viability, T/C",[29],91.5%
same,"viability, T/C",[30],44.3%
same,"viability, T/C",[31],60.9%
same,"viability, T/C",[32],69.3%
same,"viability, T/C",[33],89.4%
same,"viability, T/C",[34],104%
same,"viability, T/C",[35],85.6%
same,"viability, T/C",[36],43.8%
Nc1ccn(C2OC(CO)C(O)C2(F)F)c(=O)n1 (stereo unspecified) + COC1C(OC(N)=O)C(O)C(Oc2ccc3c(O)c(NC(=O)c4ccc(O)c(CC=C(C)C)c4)c(=O)oc3c2C)OC1(C)C,IC50,second compound 0.0316 µM,0.488 µM
same,IC50,second compound 0.1 µM,0.477 µM
same,IC50,second compound 0.316 µM,0.422 µM
same,IC50,second compound 1 µM,0.395 µM
same,IC50,second compound 3.16 µM,0.45 µM
same,IC50,second compound 10 µM,0.411 µM
same,"viability, T/C",[1],81.3%
same,"viability, T/C",[2],74.4%
same,"viability, T/C",[3],55.7%
same,"viability, T/C",[4],39.5%
same,"viability, T/C",[5],29.8%
same,"viability, T/C",[6],25.6%
same,"viability, T/C",[7],82.2%
same,"viability, T/C",[8],74.3%
same,"viability, T/C",[9],54.4%
same,"viability, T/C",[10],39.4%
same,"viability, T/C",[11],33%
same,"viability, T/C",[12],25.3%
same,"viability, T/C",[13],86.1%
same,"viability, T/C",[14],76.2%
same,"viability, T/C",[15],52.8%
same,"viability, T/C",[16],37.5%
same,"viability, T/C",[17],33%
same,"viability, T/C",[18],25.6%
same,"viability, T/C",[19],81.2%
same,"viability, T/C",[20],77.7%
same,"viability, T/C",[21],49.2%
same,"viability, T/C",[22],39.5%
same,"viability, T/C",[23],32.6%
same,"viability, T/C",[24],25%
same,"viability, T/C",[25],84.5%
same,"viability, T/C",[26],73.8%
same,"viability, T/C",[27],54.7%
same,"viability, T/C",[28],38.5%
same,"viability, T/C",[29],31.2%
same,"viability, T/C",[30],26.7%
same,"viability, T/C",[31],83.1%
same,"viability, T/C",[32],70%
same,"viability, T/C",[33],53%
same,"viability, T/C",[34],38.8%
same,"viability, T/C",[35],31.6%
same,"viability, T/C",[36],26%
